Drawing on patent US20050112615A1, “Genetic circuit inverting amplifier” (priority 2003, published 2005), this text covers EGFP output fluorescence for 1 compound.

Each structure is given as a SMILES string.

The test system of the assay is E.coli strain DH5αZ1 transformed with input pBT plasmid and amplifier plasmid pAMP-1. Put plainly: Output EGFP fluorescence of genetic circuit amplifier as a function of input IPTG concentration. The note with it: 3 hours growth, corrected for cell density and background fluorescence. In kind it is cell-based. An excerpt:
A second bacterial plasmid, pBT (Stratagene, CA), was selected to produce the input. It releases monomer into the cellular environment, making CI available for the engineered circuit to use. It is a simple plasmid that controls transcription of cI with the PlacUV promoter. […] The pBT vector has an origin of replication derived from p15A, making it compatible with the circuit plasmid which has a different ColE1 origin of replication. Together, the plasmids constitute a cis-trans network, since the product of one plasmid (pBT) affects the outcome of gene expression on the second plasmid (pAMP-1).
The input pBT plasmid and the amplifier plasmid pAMP-1 gene were transformed into chemically competent E.coli strain DH5αZ1. This strain was selected because it produces LacI in abundance so as to permit effective use of pBT. Transformed cells were grown overnight at 37° C. in LB broth. Chloramphenicol was added at a concentration of 50 μg/mL and ampicillin was added at a concentration of 100 μg/mL.
The overnight culture was diluted 1:50 into fresh LB medium containing IPTG at the following concentrations: 0-20-200-2000 μM. These cells were allowed to grow for another 3 hours. The cells were then spun down and re-suspended in PBS. Fluorescence was then measured on a BMG Optima microplate fluorometer equipped with filters for GFP. Absorbance at 600 nm was also measured. Fluorescence was the corrected for cell density and background fluorescence. The result, presented in Table 1, indicates an output that decreases with increasing input. Observed non-linearity is likely due to low gain of chosen gain element.

Take `CC(C)S[C@@H]1O[C@H](CO)[C@H](O)[C@H](O)[C@H]1O` [IPTG, isopropyl-β-D-thiogalactopyranoside]: the EGFP output fluorescence runs as follows: (IPTG 20 uM) 66263 arbitrary units; (IPTG 200 uM) 58338 arbitrary units; (IPTG 2000 uM) 44137 arbitrary units.
